Legend:
[1] = test system: Rice plants (Variety: Nakdong); assay: Soil treatment of rice with inducers; serotonin derivative content in seeds by HPLC; type: in vivo; details: for Rank of inducers by serotonin derivatives produced: in words; for Content of serotonin derivatives: Coumaroyl Serotonin / Content of serotonin derivatives: Feruloyl serotonin / Content of serotonin derivatives: Total content: inducer 100 μM to soil, 300,000 L/ha, 20 days
Method: Rice plants (Variety: Nakdong) having been cultivated in the rice field were treated with inducers for serotonin derivative biosynthesis and then biosynthesis of the serotonin derivatives was investigated.
Inducers for serotonin derivative biosynthesis were prepared by dissolving tyramine, tryptamine, cinnamic acid, coumaric acid, caffeic acid and ferulic acid (Sigma-Aldrich, Korea) in water respectively to make each concentration 100 μM. And then the soil where rice plants (about 40 days after heading) had been growing was treated once with each inducer for serotonin derivative biosynthesis at the rate of 300,000 L/ha, followed by further cultivation for 20 days.
As a control group, rice plant which had been cultivated under the same conditions except the treatment with inducers for serotonin derivative biosynthesis was used.
After harvesting rice, seeds of the rice were peeled to obtain brown rice. N-(hydroxycinnamoyl)-amines were extracted from 1 g of the brown rice by known method (Ishihara et al., Biosci. Biotechnol. Biochem. 64, 1025-1031, 2000), and then, HPLC was performed.
Coumaroylserotonin and feruloylserotonin included in the extract of seeds of rice, treated with inducers for serotonin derivative biosynthesis, were quantified by HPLC using a standard substance synthesized by a well-known method (Villegas & Brodelius, Physiol. Plant. 78, 414-420, 1990).

[2] = test system: Hot pepper (Variety: Pungcheon); assay: Soil treatment of hot pepper with inducers; serotonin derivative content in sarcocarps by HPLC; type: in vivo; details: for Rank of inducers by serotonin derivatives produced: in words; for Content of serotonin derivatives: Coumaroyl Serotonin / Content of serotonin derivatives: Feruloyl serotonin / Content of serotonin derivatives: Total content: inducer 100 μM to soil, 300,000 L/ha, 20 days
Method: Hot pepper (Variety: Pungcheon) was treated with inducers for serotonin derivative biosynthesis, followed by an examination of biosynthesis of serotonin derivatives.
Particularly, inducers for serotonin derivative biosynthesis were prepared by dissolving tyramine, tryptamine, cinnamic acid, coumaric acid, caffeic acid and ferulic acid in water respectively to make each concentration 100 μM. And then the soil where rice plants (about 40 days after heading) had been growing was treated once with each inducer for serotonin derivative biosynthesis at the rate of 300,000 L/ha, followed by further cultivation for 20 days.
The ripe sarcocarps of hot peppers were obtained to investigate the content of serotonin derivatives by the same method as used in the above Example <1-1>. Control group hot pepper was cultivated under the same condition as the experimental group hot pepper except the treatment with inducers for serotonin derivative biosynthesis.

[3] = test system: transgenic rice plants (T14) over-expressing THT; assay: Soil treatment of transgenic rice T14 with inducers; serotonin derivative content in seeds; type: in vivo; details: seeds of transgenic rice T14; inducer 100 μM to soil, 300,000 L/ha, 20 days
Method: Among T2 generations of transgenic rice plants, T14 was transplanted in the soil, to which inducers for serotonin derivative biosynthesis were treated. After cultivation, the contents of serotonin derivatives in seeds of the transgenic rice plants were investigated.
As inducers for serotonin derivative biosynthesis, tyramine, tryptamine, cinnamic acid, coumaric acid, caffeic acid and ferulic acid were used. Precisely, the inducers for serotonin derivative biosynthesis were dissolved in water, making each concentration 100 μM. Then, the solutions were added at the rate of 300,000 L/ha, to the soil where rice plants (about 40 days after heading) were growing. The plants were cultivated for 20 more days.
The seeds of the plants cultivated above were collected, and the content of serotonin derivatives in them was investigated with the same method as used in the Example <1-1>, which was compared with that in seeds of wild type control rice plants.

potato THT = details: potato THT; cited from earlier work
[4] = test system: recombinant hot pepper THT; details: hydroxycinnamic acid derivative substrates; cited from earlier work

Row | Compound | Rank of inducers by serotonin derivatives produced [1] | Content of serotonin derivatives: Coumaroyl Serotonin [1] | Content of serotonin derivatives: Feruloyl serotonin [1] | Content of serotonin derivatives: Total content [1] | Rank of inducers by serotonin derivatives produced [2] | Content of serotonin derivatives: Coumaroyl Serotonin [2] | Content of serotonin derivatives: Feruloyl serotonin [2] | Content of serotonin derivatives: Total content [2] | Content of serotonin derivative: Coumaroyl serotonin [3] | Content of serotonin derivative: Feruloyl serotonin [3] | Content of serotonin derivative: Total content [3] | Use as amine substrate (potato THT) | Maximum reaction velocity (Vmax) relative to coumaroyl-CoA [4]
1 | COc1cc(/C=C/C(=O)O)ccc1O [Ferulic acid, ferulic acid] | third most | 33 ng/1 g seed | 37 ng/1 g seed | 70 ng/1 g seed | second most | 145 ng/1 g sarcocarps | 230 ng/1 g sarcocarps | 375 ng/1 g sarcocarps | 313 ng/g seeds | 537 ng/g seeds | 850 ng/g seeds |  | 
2 | NCCc1c[nH]c2ccccc12 [Tryptamine, tryptamine] |  | 20 ng/1 g seed | 28 ng/1 g seed | 48 ng/1 g seed |  | 61 ng/1 g sarcocarps | 79 ng/1 g sarcocarps | 140 ng/1 g sarcocarps | 376 ng/g seeds | 382 ng/g seeds | 758 ng/g seeds | not used as a substrate | 
3 | N=C(N)NCCCCN [agmatine] |  |  |  |  |  |  |  |  |  |  |  | not used as a substrate | 
4 | O=C(O)/C=C/c1ccc(O)c(O)c1 [Caffeic acid, caffeic acid] |  | 20 ng/1 g seed | 23 ng/1 g seed | 43 ng/1 g seed |  | 138 ng/1 g sarcocarps | 162 ng/1 g sarcocarps | 300 ng/1 g sarcocarps | 368 ng/g seeds | 430 ng/g seeds | 798 ng/g seeds |  | 
5 | NCCCCNCCCN [spermidine] |  |  |  |  |  |  |  |  |  |  |  | not used as a substrate | 
6 | NCCCCN [putricine] |  |  |  |  |  |  |  |  |  |  |  | not used as a substrate | 
7 | NCCCCCN [cadaverin] |  |  |  |  |  |  |  |  |  |  |  | not used as a substrate | 
8 | O=C(O)C=Cc1ccccc1 [Cinnamic acid, cinnamic acid] | produced most | 48 ng/1 g seed | 76 ng/1 g seed | 124 ng/1 g seed | produced most | 214 ng/1 g sarcocarps | 276 ng/1 g sarcocarps | 490 ng/1 g sarcocarps | 403 ng/g seeds | 406 ng/g seeds | 809 ng/g seeds |  | 
9 | CC(C)(COP(=O)(O)OP(=O)(O)OC[C@H]1O[C@@H](n2cnc3c(N)ncnc32)[C@H](O)[C@@H]1OP(=O)(O)O)[C@@H](O)C(=O)NCCC(=O)NCCSC(=O)C=Cc1ccccc1 [cinnamoyl-CoA] |  |  |  |  |  |  |  |  |  |  |  |  | 15 times
10 | NCCCNCCCCNCCCN [spermine] |  |  |  |  |  |  |  |  |  |  |  | not used as a substrate | 
11 | O=C(O)/C=C/c1ccc(O)cc1 [Coumaric acid, coumaric acid] |  | 15 ng/1 g seed | 21 ng/1 g seed | 36 ng/1 g seed |  | 120 ng/1 g sarcocarps | 170 ng/1 g sarcocarps | 290 ng/1 g sarcocarps | 325 ng/g seeds | 599 ng/g seeds | 924 ng/g seeds |  | 

— patent US20040268437A1, “Method for biosynthesizing the serotonin derivatives in plants” (CHONNAM NATIONAL UNIVERSITY, priority 2003, published 2004)
